In US4473544A, “Radio-iodine-labelled omega phenyl fatty acids” (priority 1979, dated 1984):

How the values were obtained:
[1] = Renal excretion and extracellular distribution of beta-oxidation degradation products; format: in vivo; settings: products of beta-oxidation of radio-iodine-labelled phenyl fatty acids
Text: We have now discovered radio-iodine-labelled omega-phenyl fatty acids, particularly p-I123 -omega-phenyl pentadecanoic acid and its use, to image body organs such as the heart and liver. Through the use of these novel agents, the disadvantages associated with the use of omega-iodine fatty acids, e.g., injecting radioactive iodide as an internal standard and making the necessary corrections, can be completely avoided.
On degradation via beta-oxidation of the iodinated phenyl fatty acid of the invention, the radioactive residue produced is not iodide, but rather iodinated benzoic or iodinated phenylacetic acid. […] Tests in mice have proven that the residual activity in the blood is 2% of the injected dose per gram of blood.

[2] = stated as known; cited from earlier work

In the case of iodophenylacetic acid, the “distribution throughout the extracellular fluid” value [1] is listed as “does not occur”, the “excretion by the kidneys” value [1] is listed as “rapidly and quantitatively excreted by the kidneys” and the “excretion from the body via the kidneys” value [2] is listed as “rapidly excreted from the body via the kidneys”.
